Experimental data published in patent US20090018136A1, “METHODS AND COMPOSITIONS FOR THE TREATMENT OF VASCULAR DISEASE” (priority 2005, published 2009).

How the values were obtained:
[1] = test system: venous grafts and arteries; conditions: acute BH4; diabetic subjects undergoing coronary artery bypass graft surgery; cited from earlier work
[2] = test system: beagles; conditions: dog, in vivo, po, 100 mg/kg
Experimental: This study evaluated the cardiovascular effects of high doses of 6R-BH4 in combination with the PDE5 inhibitor sildenafil citrate in vivo. Eight male research nonnaïve and naïve purebred beagles were dosed in a double Latin square crossover design as described in the following table. All animals were dosed by oral gavage. Test articles were administered at a dose volume of 5 mL/kg (for a total volume of 10 mL/kg for the combination dose); control animals were dosed at a dose volume of 10 mL/kg. 6R-BH4 (sapropterin dihydrochloride) provided as 300 mg tablets (100 mg active 6R-BH4/tablet) stored at room temperature with desiccant.
At initiation of treatment, the animals were approximately 7 to 10 months old, and their body weights prior to dosing ranged from 7.8 to 12.0 kg.
At least 2 weeks prior to initiation of treatment, animals were fasted overnight, anesthetized, and an electrocardiogram (ECG) and blood pressure transmitter were implanted into the abdomen and sutured to the abdominal wall. The blood pressure catheter was placed in an artery and advanced to the abdominal aorta. Animals were checked twice daily (a.m. and p.m.) for mortality, abnormalities, and signs of pain and distress. Additional findings were recorded as observed.
Detailed observations were taken three times during the predose phase (including the day before dosing) and on Days 3 and 10 of the dosing phase. For each dosing day, ECG and pressure measurements were recorded for at least 90 minutes prior to dosing, continuously for at least 8 hours after dosing, and then for one period of at least 15 minutes in duration each hour through at least 24 hours postdose. Blood pressure measurements included systolic, diastolic, and mean arterial pressures and pulse pressure (systolic-diastolic). […]
Quantitative evaluation of ECG measurements, including RR interval, QT, and rate-corrected QT (QTc, using Fridericia's method), were done.
Positive inotropic effects (+dP/dtmax) and heart rate were calculated from a left ventricular pressure signal predose and approximately 2, 4, 8, 12, and 24 hours postdose. […]

[3] = test system: subjects with sickle cell disease; test: Phase 2a sickle cell disease study: endothelial function by EndoPAT; format: in vivo, human; conditions: preliminary findings, sickle cell disease patients treated with BH4
Experimental: This Phase 2a multicenter, open-label, dose-escalation study is designed to assess the safety and biologic activity of once daily (for 2.5, 5, and 10 mg/kg/day doses) or twice daily (for the 20 mg/kg/day dose) oral administration of 4 escalating doses of 6R-BH4 to subjects with SCD. During an optional extension phase, the study will assess the safety, tolerability, and efficacy of extended treatment with 6R-BH4. Subjects will receive oral, once-daily (for 2.5, 5, and 10 mg/kg/day) or twice-daily (for 20 mg/kg/day) doses of 6R-BH4 during a 16-week dose-escalation phase, with dose levels increasing within subjects every 4 weeks, as follows: 2.5, 5, 10, and 20 mg/kg/day. Prior to dose escalation, the each subject will be evaluated with respect to safety profile during the previous dose level, using predefined parameters. […] Endothelial function will be evaluated using Doppler echocardiogram (DE), peripheral arterial tonometry (EndoPAT), and exhaled nitric oxide (NO). The symptoms of SCD (frequency of sickle cell crises and vaso-occlusive crises), along with changes in the 6-minute-walk (MW) test, will be monitored. […] The number of tablets will be determined by the dose of sapropterin dihydrochloride, rounded to the nearest 100 mg. […]

In the case of `C[C@H](O)[C@H](O)[C@H]1CNc2nc(N)[nH]c(=O)c2N1` [BH4, tetrahydrobiopterin], the “vascular function in venous grafts and arteries” value [1] is given as “restores”, the “effect on any of the cardiovascular parameters measured” value [2] is given as “No effect” and the “endothelial function as measured by the EndoPAT device” value [3] is given as “improvement”.
